Laboratory results taken from article PMC3038857, “Using Nuclear Receptor Activity to Stratify Hepatocarcinogens” (PLoS ONE, 2011).

Columns and labels:
ERa (ESR1) [1] = molecular target: T1, ERa (ESR1) (Homo sapiens, UniProt P03372); assay: NCGC_ERalpha_Agonist: GAL4 BLAM Reporter gene assay: ERa; type: cell-based; settings: agonist mode
T1 construct: expressed in transfected cells; host or cells: HEK293
Description: These assays measure binding constants and enzyme inhibition values for nuclear receptors. The targets include [drawing 67] , [drawing 68] , [drawing 69] , [drawing 70] , [drawing 71] , [drawing 72] , [drawing 73] , [drawing 74] , [drawing 75] and [drawing 76] . Each of the nuclear receptor targets was measured in agonist mode. Assays were run at the NIH Chemical Genomics Center (Rockville, MD).
Cell-based HTS Assays: These assays measuring binding constants and enzyme inhibition values for nuclear receptors. The targets include AR, ER, FXR, LXR, PPARα, PPARδ, PPARγ, RXRα, RXRβ and PXR. Each of the nuclear receptor targets was measured in both agonist and antagonist mode, but the antagonist data is still undergoing analysis due to possible interference between cytotoxicity and assay activity, so antagonist mode data were not used in the present analysis. Assays were run at the NIH Chemical Genomics Center (Rockville, MD) as part of the Tox21 collaboration. […] The R^2 was required to be ≥0.5. Values where only the highest concentration exceeded 50% activity were excluded to eliminate weak or false positives. Detailed description of the methods, data and analysis methods for this dataset will be presented in a separate publication.

CYP3A4 = assay: CLZD_CYP3A4: Change in expression of CYP3A4 (primary human hepatocytes); type: cell-based; settings: 24 hr
How it was run: (§1)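 Primary human hepatocytes exposed to 5 concentrations (0.004-40 µM) for 6, 24 or 48 hr; transcript levels measured by multiplexed quantitative nuclease protection assay. Markers of nuclear receptor pathways: CYP1A1 (AhR), CYP2B6 and ABCB1 (CAR), CYP3A4 (PXR).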

ERa (ESR1) [2] = molecular target: T1, ERa (ESR1); assay: NCGC_ERalpha_Antagonist: GAL4 BLAM Reporter gene assay: ERa; type: cell-based; settings: antagonist mode
PXR (NR1I2) [3] = molecular target: T2, PXR (NR1I2) (Homo sapiens, UniProt O75469); assay: ATG_PXRE_CIS: Factorial reporter gene assay (HepG2); type: cell-based; parameters: endogenous in cells; host or cells: HepG2; settings: HepG2
T2 sequence (O75469 1-434): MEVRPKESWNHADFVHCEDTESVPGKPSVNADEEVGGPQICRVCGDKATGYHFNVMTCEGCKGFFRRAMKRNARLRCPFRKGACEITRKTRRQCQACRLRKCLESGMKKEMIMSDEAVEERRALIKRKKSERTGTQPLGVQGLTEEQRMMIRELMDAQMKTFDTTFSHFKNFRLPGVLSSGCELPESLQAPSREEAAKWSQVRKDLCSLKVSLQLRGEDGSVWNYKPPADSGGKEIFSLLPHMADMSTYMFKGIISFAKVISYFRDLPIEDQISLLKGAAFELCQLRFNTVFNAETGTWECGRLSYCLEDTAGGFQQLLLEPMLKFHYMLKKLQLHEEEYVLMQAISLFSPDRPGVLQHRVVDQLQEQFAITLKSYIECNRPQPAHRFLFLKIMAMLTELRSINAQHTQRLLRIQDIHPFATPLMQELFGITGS
How it was run: (§2)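 CIS (PXRE): HepG2 transfected with 48 TF-binding-site MRTU library. TRANS (ERRg, FXR, PPARg): one-hybrid format, extra 25 nuclear-receptor MRTUs. 7 concs, top = MTC, 3-fold serial dilution.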

[4] = molecular target: T3, ESR1 (estrogen receptor 1) (Homo sapiens, UniProt P03372); assay: ATG_ERE_CIS: Factorial reporter gene assay (HepG2); type: cell-based; settings: HepG2
T3 construct: expressed in transfected cells; host or cells: HepG2
Description: (§3) A multiple reporter transcription unit (MRTU) library consisting of 48 transcription factor binding sites was transfected into the HepG2 human liver hepatoma cell line. In addition to the cis-acting reporter genes (CIS), a modification of the approach was used to generate a trans-system (TRANS) with a mammalian one-hybrid assay consisting of an additional 25 MRTU library reporting the activity of nuclear receptor super-family members. […] These assays were performed by Attagene Inc. (Morrisville NC) under contract to EPA.
(§4) In addition to the cis-acting reporter genes (CIS), a modification of the approach was used to generate a trans-system (TRANS) with a mammalian one-hybrid assay consisting of an additional 25 MRTU library reporting the activity of nuclear receptor super-family members. […] Chemicals were then tested in the CIS and TRANS assays at seven concentrations starting at the MTC and followed by three-fold serial dilutions. These assays were performed by Attagene Inc. (Morrisville NC) under contract to EPA. Detailed description of the methods, data and analysis methods for this dataset will be presented in a separate publication.

[5] = molecular target: T3, ESR1 (estrogen receptor 1); assay: ATG_ERa_TRANS: Factorial reporter gene assay (HepG2); type: cell-based; settings: HepG2
Description: as §3, §4

CYP2B6 = assay: CLZD_CYP2B6: Change in expression of CYP2B6 (primary human hepatocytes); type: cell-based; settings: 24 hr
How it was run: as §1

CYP1A2 = assay: CLZD_CYP1A2: Change in expression of CYP1A2 (primary human hepatocytes); type: cell-based; settings: 24 hr
How it was run: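 Chemicals are tested in human hepatocyte primary cultures over 0.004-40 µM (5 concentrations) for 6, 24 or 48 hr, and concentration- and time-dependent transcript changes are read by quantitative nuclease protection assay.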

PXR (NR1I2) [6] = molecular target: T2, PXR (NR1I2); assay: NVS_NR_hPXR: Human PXR Fluormone PXR (SXR) green (cell-free HTS); type: binding
How it was run: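 Responses were normalized to same-plate solvent controls as percent of neutral control. AC50 values came from Hill-equation fits of concentration-response curves.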

AR (androgen receptor) = assay: NVS_NR_hAR: Human AR 3H-Methyltrienolone (cell-free HTS); type: binding
Source text: (§5) These are a collection of biochemical assays measuring binding constants and enzyme inhibition values. Chemicals were initially screened at a single concentration in duplicate wells at a concentration of 10 [drawing 63] M for cytochrome P-450 assays and 25 [drawing 64] M for all others. […] These assays were run by Caliper Life Sciences (Hanover, MD) under contract to EPA. Short assay descriptions are available at: http://www.caliperls.com/products/contract-research/in-vitro/.
(§6) Cell-free HTS Assays: A collection of biochemical assays measuring binding constants and enzyme inhibition values. […] These assays were run by Caliper Life Sciences (Hanover, MD) under contract to EPA. Short assay descriptions are available at http://www.caliperls.com/products/contract-research/in-vitro/. Values for all endpoints were imported into GeneData Screener (Basel, Switzerland) and normalised to solvent controls from the same plate as the tested compounds and expressed as percent of neutral control. Concentration-response curves were fit in GeneData Screener (Basel, Switzerland) Condeseo module using the Hill equation and AC50 values were determined. […] Detailed description of the methods, data and analysis methods for this dataset are described in a separate publication.

[7] = molecular target: T4, PPARG (peroxisome proliferator-activated receptor gamma) (Homo sapiens, UniProt P37231); assay: ATG_PPARg_TRANS: Factorial reporter gene assay (HepG2); type: cell-based; settings: HepG2
T4 construct: expressed in transfected cells; host or cells: HepG2
T4 sequence (P37231 1-505): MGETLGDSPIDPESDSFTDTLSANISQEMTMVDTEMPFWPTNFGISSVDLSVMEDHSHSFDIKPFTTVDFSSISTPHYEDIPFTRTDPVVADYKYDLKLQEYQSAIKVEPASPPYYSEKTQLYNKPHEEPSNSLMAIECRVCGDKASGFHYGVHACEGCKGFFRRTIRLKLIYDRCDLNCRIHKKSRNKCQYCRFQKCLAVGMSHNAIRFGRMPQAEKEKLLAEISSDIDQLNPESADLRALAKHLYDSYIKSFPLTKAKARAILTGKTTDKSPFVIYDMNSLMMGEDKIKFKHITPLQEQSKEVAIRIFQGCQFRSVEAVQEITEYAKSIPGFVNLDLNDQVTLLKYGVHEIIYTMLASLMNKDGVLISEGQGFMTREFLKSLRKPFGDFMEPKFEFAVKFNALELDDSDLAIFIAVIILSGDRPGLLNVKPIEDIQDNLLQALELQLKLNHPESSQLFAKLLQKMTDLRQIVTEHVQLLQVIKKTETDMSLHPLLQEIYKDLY
How it was run: as §2

PPARg (PPARG) = molecular target: T5, PPARg (PPARG) (Homo sapiens, UniProt P37231); assay: NVS_NR_hPPARg: Human PPARg Fluorescent Ligand (cell-free HTS); type: binding
T5 sequence (P37231 1-505): T4 sequence (P37231 1-505)
Source text: as §5, §6

T3 sequence (P03372 whole entry): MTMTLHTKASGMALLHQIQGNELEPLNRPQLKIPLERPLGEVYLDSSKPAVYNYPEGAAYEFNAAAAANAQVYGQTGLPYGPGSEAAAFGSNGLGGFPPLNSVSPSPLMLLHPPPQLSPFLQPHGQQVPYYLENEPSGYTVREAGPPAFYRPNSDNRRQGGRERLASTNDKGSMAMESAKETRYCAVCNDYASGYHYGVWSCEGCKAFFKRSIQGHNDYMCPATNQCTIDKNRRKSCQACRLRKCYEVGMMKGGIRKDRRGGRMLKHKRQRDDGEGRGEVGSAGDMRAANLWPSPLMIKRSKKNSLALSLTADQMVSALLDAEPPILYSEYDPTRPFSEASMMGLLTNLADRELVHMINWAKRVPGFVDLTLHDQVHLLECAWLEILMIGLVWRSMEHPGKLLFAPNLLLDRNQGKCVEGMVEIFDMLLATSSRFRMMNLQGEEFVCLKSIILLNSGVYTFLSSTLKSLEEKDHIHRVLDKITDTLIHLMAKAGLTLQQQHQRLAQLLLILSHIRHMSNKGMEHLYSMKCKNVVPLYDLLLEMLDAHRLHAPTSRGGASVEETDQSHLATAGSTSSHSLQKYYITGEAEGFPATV
T1 sequence (P03372 whole entry, the tested form may be a part): as the sequence (P03372 whole entry) above

## COc1ccc(C(c2ccc(OC)cc2)C(Cl)(Cl)Cl)cc1 [row 201]
ERa (ESR1) [1]
  NCGC_ERalpha_Agonist: 5.406
CYP3A4
  CLZD_CYP3A4_24: 4.692
ERa (ESR1) [2]
  NCGC_ERalpha_Antagonist: 4.409
PXR (NR1I2) [3]
  ATG_PXRE_CIS: 5.036
[4]
  ATG_ERE_CIS: 5.398
[5]
  ATG_ERa_TRANS: 5.569
CYP2B6
  CLZD_CYP2B6_24: 5.24
CYP1A2
  CLZD_CYP1A2_24: 5.201

## O=S(=O)(O)C(F)(F)C(F)(F)C(F)(F)C(F)(F)C(F)(F)C(F)(F)C(F)(F)C(F)(F)F [r240]
PXR (NR1I2) [6]
  NVS_NR_hPXR: 4.496
CYP3A4
  CLZD_CYP3A4_24: 4.541
AR (androgen receptor)
  NVS_NR_hAR: 4.625
PXR (NR1I2) [3]
  ATG_PXRE_CIS: 4.745
[7]
  ATG_PPARg_TRANS: 4.585
CYP2B6
  CLZD_CYP2B6_24: 4.97
PPARg (PPARG)
  NVS_NR_hPPARg: 4.932
